Data reported in PMC8805583, “Discovery of Herbacetin as a Novel SGK1 Inhibitor to Alleviate Myocardial Hypertrophy” (Advanced Science, 2021).
Entries after “also recorded” stand apart in the source; their conditions may differ.

Key:
[1] = target: T1, SGK1 protein with the D177A mutation (Homo sapiens, UniProt O00141, D177A); test: MS-based kinase inhibitory assay with FLAG-tagged mutated SGK1 immunoprecipitated from HEK293T; assay type: biochemical; conditions: normalized to WT SGK1
T1 construct: host or cells: HEK293T
T1 sequence (O00141 1-431 D177A): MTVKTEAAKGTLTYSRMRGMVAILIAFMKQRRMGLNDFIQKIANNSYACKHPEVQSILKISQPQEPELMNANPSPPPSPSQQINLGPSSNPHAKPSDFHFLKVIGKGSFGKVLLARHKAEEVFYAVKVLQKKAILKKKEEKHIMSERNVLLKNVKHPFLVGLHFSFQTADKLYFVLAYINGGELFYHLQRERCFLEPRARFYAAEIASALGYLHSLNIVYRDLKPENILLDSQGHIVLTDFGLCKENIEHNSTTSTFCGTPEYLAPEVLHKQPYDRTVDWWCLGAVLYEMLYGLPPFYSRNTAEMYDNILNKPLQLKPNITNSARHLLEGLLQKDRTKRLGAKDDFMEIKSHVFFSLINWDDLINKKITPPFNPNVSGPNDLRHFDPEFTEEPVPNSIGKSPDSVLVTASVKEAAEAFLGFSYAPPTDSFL
Source text: To further elaborate the interaction between SGK1 and HBT, the SGK1‐HBT complex was constructed by molecular docking based on the SGK1 crystal structures retrieved from the Protein Data Bank (PDB). […] To explore the impacts of these three residues on the SGK1‐HBT binding, plasmids carrying respective SGK1 mutations (D177A, N227A, and T239A) were designed and transfected in the human embryonic kidney cells (HEK293T). The FLAG‐tagged wild‐type or mutated SGK1 protein lysates were collected by immunoprecipitation and examined for enzymatic activity in the presence of HBT using MS‐based kinase inhibitory assay.
The initial crystal structures of SGK1 (PDB entry: 3HDN, 3HDM, and 2R5T) were obtained from the Protein Data Bank (PDB). The prepared inhibitors were then docked by Glide with the extra precision (XP) scoring mode to estimate the binding affinity for each protein–ligand complex. The detailed process of docking has been described previously.^[ [46] ^] HEK293T cells were transfected with SGK1 mutant plasmids. After 24 h, cells were lysed and immunoprecipitated with anti‐FLAG antibody and beads. Immune complexes were washed with kinase buffer and incubated in kinase buffer with substrate peptide for 1 h at 30 ℃ followed by LC/MS measurement as described above. KINOMEscan Profiling Service and KinaseProfiler Service Assay were provided by Eurofins Discovery.

SGK1-FoxO1 interaction = target: T2, SGK1-FoxO1 interaction (Rattus norvegicus, UniProt Q06226); test: Co-immunoprecipitation of SGK1 and FoxO1 in cardiomyocytes; assay type: cell-based; conditions: coimmunoprecipitation
T2 construct: endogenous in cells; host or cells: primary neonatal rat cardiomyocytes
T2 sequence (Q06226 1-430): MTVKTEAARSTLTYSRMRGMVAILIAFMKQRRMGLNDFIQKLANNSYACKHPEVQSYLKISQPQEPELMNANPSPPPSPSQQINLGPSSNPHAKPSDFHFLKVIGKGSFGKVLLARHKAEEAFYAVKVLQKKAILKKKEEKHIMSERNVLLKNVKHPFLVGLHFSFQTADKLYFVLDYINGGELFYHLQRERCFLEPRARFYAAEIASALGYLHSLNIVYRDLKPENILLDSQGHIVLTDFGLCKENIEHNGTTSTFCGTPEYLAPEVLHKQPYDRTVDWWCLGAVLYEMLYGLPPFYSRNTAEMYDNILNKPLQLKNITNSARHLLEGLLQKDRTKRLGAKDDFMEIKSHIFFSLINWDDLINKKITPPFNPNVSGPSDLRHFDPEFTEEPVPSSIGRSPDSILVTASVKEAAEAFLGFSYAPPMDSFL
Method: In the present study, we studied HBT's effect on protein binding between SGK1 and FoxO1 by coimmunoprecipitation (Figure 5E). […] Nevertheless, as previously reported,^[ [30] ^] […] Supportively, after transfection with the SGK1(S422D) plasmid, we consistently detected increased cytoplasmic signal of FoxO1 compared to nontransfected cells in which the majority of FoxO1 signal was distributed in the nucleus.
For the endogenous interaction assay, cardiomyocytes were treated with HBT or vehicle. After 24 h, cells were lysed with cell lysis buffer contained PMSF (Phenylmethylsulfonyl fluoride, a protease inhibitor). Protein extracts were harvested and immunoprecipitated with anti‐SGK1 or anti‐IgG antibody and protein A/G beads, and then measured by western blotting analysis.

control mice = test: HBT in control mice (safety); assay type: in vivo
Method: Finally, we evaluate the safety and pharmacokinetics of HBT to ensure its druggability. […] Single dose administration of HBT at 40 mg kg^−1 was uptaken rapidly with a maximal plasma concentration of ≈6.73 ng mL^−1 after 10 min (Figure S14A, Supporting Information).
Figure S12. The mice were divided into two groups: Sham, Sham mice treated with HBT (Ctrl + HBT). (A) Schedule of animal treatments. (B) Heart weight/Body weight ratio (HW/BW) was detected in Ctrl and Ctrl + HBT group. (C-D) Echocardiography assessments were performed in the two groups. n=10-12. (E) HE in different groups of mice. n=4, Scale bar=50 μm. (F) The phosphorylation level of SGK1 in myocardial tissues in the two groups (Ctrl, Ctrl + HBT), n=4. Data were analyzed using unpaired two-tailed t test and data were expressed as means ± SD, ns: no significant.
(1 picture or pasted object on this page, not shown here)
Figure S13. Serum level of biochemical markers in mice of Ctrl and Ctrl + HBT groups. Data were analyzed using unpaired two-tailed t test and data were expressed as means ± SD, ns: no […]
Figure S14. Plasma concentration (A) and in vivo distribution (B) of HBT after single oral administration with dosage of 40mg/kg rat weight (n=5-6). The quantitation of HBT was performed by LC-MS/MS analysis. […]

## O=c1c(O)c(-c2ccc(O)cc2)oc2c(O)c(O)cc(O)c12 [HBT, herbacetin]
[1]
  inhibition of D177A-mutated SGK1 by HBT: completely ablates; also recorded: almost completely lost its response
SGK1-FoxO1 interaction
  direct binding between SGK1 and FoxO1: did not detect significant impact
Control mice; control mice
  heart weight, cardiac function, cardiac histopathology: no adverse effect
Control mice; control versus HBT-treated mice
  serum level of regular biomarkers (ALT, AST, TCHO): no significant difference
